{
  "source": "patent US9034403B2",
  "about": "“Yeast extract containing γ-Glu-X or γ-Glu-X-Gly and a method for producing the same” (AJINOMOTO CO., INC., priority 2010, dated 2015)",
  "key": {"[1]": {"system": "Saccharomyces cerevisiae S288C strain", "assay": "Addition of peptide to medium of S288C strain; peptide content in dry cells and in extract by LC-MS/MS", "format": "cell-based", "protocol": "Absorbance of the obtained culture broth was measured, the culture broth was inoculated into SD medium (400 ml in a 2 L-volume conical flask with baffle fins, a pluratity of flasks) so that OD660 was 0.01 at the start of the culture (absorbance was measured by using DU640 SPECTROPHTOMETER, BECKMAN COULTER), and culture was performed at 30° C. for 19 hours with shaking by rotation at a velocity of 120 rpm. From the obtained culture broth, 400 OD units of the cells (1 OD unit is defined as cells contained in 1 ml of culture broth of which OD660 is 1) were collected by centrifugal separation. The supernatant was removed as much as possible, and the residual cells were suspended in 45 ml of Milli-Q water. The cells were collected again by centrifugal separation, and resuspended in 45 ml of Milli-Q water. By repeating this operation 3 times in total, the medium was completely removed from the cells. The washed cells were suspended in about 1.5 ml of Milli-Q water, and the suspension was heated at 70° C. for 10 minutes. By this step, the extractable components contained in the cells were extracted. Then, the extract and the cell residue were separated by centrifugation.\nCell debris were removed from the extract using a centrifugal filtration membrane of 10 kDa (Amicon Ultra—0.5 mL 10K, MILLIPORE, Catalogue Number UFC501096)), the obtained fraction was derivatized with the AQC reagent in the same manner as that used in Example 1, and γ-Glu-Val-Gly and γ-Glu-Val were measured by LC-MS/MS. Separately, the amount of GSH in the cells was measured in a conventional manner (GSH in the extract was derivatized by using a fluorescence reagent ABD-F that binds to thiol group, separated and quantified by HPLC). Furthermore, dry cell weight was measured after the washed cells were dried at 104° C. for 4 hours. From the amounts of γ-Glu-Val-Gly and γ-Glu-Val in the extract prepared from the cells that was contained in a certain volume of culture broth and dry cell weight measured as described above, the amount of these peptides based on weight of dried cells was calculated. […]\nOne loop of the S288C strain was inoculated into SD medium (50 ml in a 500 ml-volume Sakaguchi flask), and cultured at 30° C. for 24 hours with shaking at a velocity of 120 rpm. Absorbance of the obtained culture broth was measured, the culture broth was inoculated into SD medium (400 ml in a 2 L-volume conical flask with baffle fins, two or more flasks) so that OD660 was 0.01 at the start of the culture, and culture was performed at 30° C. for 19 hours with shaking by rotation at a velocity of 120 rpm. After 19 hours, γ-Glu-Val-Gly aqueous solutions of various concentrations were added to obtain predetermined concentrations, and the culture was continued for 1 hour. Using these culture broths, the γ-Glu-Val-Gly content in dry cells was calculated in the same manner as in Example 2. Furthermore, the solid content of the extract was calculated, and the amount of γ-Glu-Val-Gly in the solid content was also calculated. […]\nThe cells were collected from the total culture broth, and washed in the same manner as that of Example 2. The washed cells in an amount of 400 OD units were suspended in 1.5 ml of Milli-Q water. This suspension was maintained at 70° C. for 10 minutes to produce an extract from the yeast cells. Furthermore, the suspension was centrifuged to remove the cell residues and thereby collect only the extract. The γ-Glu-Val-Gly concentration of this extract (extract of addition experiment) was measured to be about 300 ppm, and solid content was about 1%. The γ-Glu-Val-Gly concentration in an extract prepared in the same way but without adding γ-Glu-Val-Gly to the culture broth (extract of no addition experiment) was below the quantitation limit, and solid content was about 1%.\nOne loop of the S288C strain was inoculated into SD medium (50 ml in a 500 ml-volume Sakaguchi flask), and cultured at 30° C. for 24 hours with shaking at a velocity of 120 rpm. […]"}, "[2]": {"system": "S288C PADH1-HGT1 (Hgt1p overproducing strain) and S288C", "assay": "Peptide uptake of Hgt1p overproducing strain and parental strain S288C, intracellular content on dry weight cell", "format": "cell-based, Saccharomyces cerevisiae", "protocol": "One loop of the S288C strain was inoculated into SD medium (50 ml in a 500 ml-volume Sakaguchi flask), and cultured at 30° C. for 24 hours with shaking at a velocity of 120 rpm. Absorbance of the obtained culture broth was measured, the culture broth was inoculated into SD medium (400 ml in a 2 L-volume conical flask with baffle fins, two or more flasks) so that OD660 was 0.01 at the start of the culture, and culture was performed at 30° C. for 19 hours with shaking by rotation at a velocity of 120 rpm. After 19 hours, γ-Glu-Val-Gly aqueous solutions of various concentrations were added to obtain predetermined concentrations, and the culture was continued for 1 hour. Using these culture broths, the γ-Glu-Val-Gly content in dry cells was calculated in the same manner as in Example 2. Furthermore, the solid content of the extract was calculated, and the amount of γ-Glu-Val-Gly in the solid content was also calculated.\nThe S288C PADH1-HGT1, Hgt1p overproducing strain obtained in Example 12, and its parental strain S288C, were evaluated for their ability to take up γ-Glu-Val-Gly in the same manners as described in Example 4. The amount of γ-Glu-Val-Gly added into the medium was 100 ppm as a final concentration. As a result, intracellular content of γ-Glu-Val-Gly in S288C on the dry weight cell was about 0.9%, but intracellular content of γ-Glu-Val-Gly in S288C PADH1-HGT1 on the dry weight cell was about 4.9%.\nS288C PADH1-HGT1, Hgt1p overproducing strain obtained in Example 12, and its parental strain S288C were evaluated for their γ-Glu-nVal-Gly uptake abilities in the same manners as described in Example 4 and Example 13. The amount of γ-Glu-nVal-Gly added to the medium was 100 ppm as a final concentration."}, "[3]": {"conditions": "0.01 ppm γ-Glu-Val-Gly added to medium after 19 hours, culture continued 1 hour"}, "[4]": {"conditions": "0.1 ppm γ-Glu-Val-Gly added to medium after 19 hours, culture continued 1 hour"}, "[5]": {"conditions": "1 ppm γ-Glu-Val-Gly added to medium after 19 hours, culture continued 1 hour"}, "[6]": {"conditions": "5 ppm γ-Glu-Val-Gly added to medium after 19 hours, culture continued 1 hour"}, "[7]": {"conditions": "10 ppm γ-Glu-Val-Gly added to medium after 19 hours, culture continued 1 hour"}, "[8]": {"conditions": "100 ppm γ-Glu-Val-Gly added to medium after 19 hours, culture continued 1 hour"}},
  "data": [
    {"smiles": "CC(C)[C@H](NC(=O)CC[C@H](N)C(=O)O)C(=O)NCC(=O)O", "note": "[γ-Glu-Val-Gly]", "values": [
      {"measurement": "γ-Glu-Val-Gly content in dry cells", "setting": "[1]; [3]", "value": 5, "unit": "ppm"},
      {"measurement": "γ-Glu-Val-Gly content in solid content of extract", "setting": "[1]; [3]", "value": 21, "unit": "ppm"},
      {"measurement": "γ-Glu-Val-Gly content in dry cells", "setting": "[1]; [4]", "value": 28, "unit": "ppm"},
      {"measurement": "γ-Glu-Val-Gly content in solid content of extract", "setting": "[1]; [4]", "value": 96, "unit": "ppm"},
      {"measurement": "γ-Glu-Val-Gly content in dry cells", "setting": "[1]; [5]", "value": 363, "unit": "ppm"},
      {"measurement": "γ-Glu-Val-Gly content in solid content of extract", "setting": "[1]; [5]", "value": 1110, "unit": "ppm"},
      {"measurement": "γ-Glu-Val-Gly content in dry cells", "setting": "[1]; [6]", "value": 2647, "unit": "ppm"},
      {"measurement": "γ-Glu-Val-Gly content in solid content of extract", "setting": "[1]; [6]", "value": 10119, "unit": "ppm"},
      {"measurement": "γ-Glu-Val-Gly content in dry cells", "setting": "[1]; [7]", "value": 5341, "unit": "ppm"},
      {"measurement": "γ-Glu-Val-Gly content in solid content of extract", "setting": "[1]; [7]", "value": 17408, "unit": "ppm"},
      {"measurement": "γ-Glu-Val-Gly concentration of extract", "setting": "[1]; 50 ppm γ-Glu-Val-Gly added after 19 hours, culture continued 1 hour, 400 OD units in 1.5 ml, solid content about 1%", "value": "about 300 ppm"},
      {"measurement": "γ-Glu-Val-Gly content in dry cells", "setting": "[1]; [8]", "value": 10191, "unit": "ppm"},
      {"measurement": "γ-Glu-Val-Gly content in solid content of extract", "setting": "[1]; [8]", "value": 32183, "unit": "ppm"},
      {"measurement": "γ-Glu-Val-Gly content in dry cells", "setting": "[1]; γ-Glu-Val-Gly 100 ppm added to SD medium in advance, culture 16 hours", "value": "about 20,000 ppm"},
      {"measurement": "intracellular content of γ-Glu-Val-Gly on the dry weight cell", "setting": "[2]; S288C PADH1-HGT1, γ-Glu-Val-Gly 100 ppm added into the medium", "value": "about 4.9%"},
      {"measurement": "intracellular content of γ-Glu-Val-Gly on the dry weight cell", "setting": "[2]; S288C, γ-Glu-Val-Gly 100 ppm added into the medium", "value": "about 0.9%"},
      {"measurement": "intracellular content of γ-Glu-Val-Gly on the dry weight cell", "setting": "[2]; S288C, γ-Glu-nVal-Gly 100 ppm added to the medium", "value": "about 0.09%"}
    ]}
  ]
}
